Measured values taken from the kinase profiling compilation of Christmann-Franck et al. (2016).

Assays:
ACVR2B (human) = ACVR2B (human) (UniProt Q13705); experiment: KINOMEscan competition binding; details: compound 10.0 µM
ANKK1 (human) = ANKK1 (human) (UniProt Q8NFD2); experiment: KINOMEscan competition binding; details: compound 10.0 µM
CDK16 (human) = CDK16 (human) (UniProt Q00536); experiment: KINOMEscan competition binding; details: compound 10.0 µM
CSNK1E (human) = CSNK1E (human) (UniProt P49674); experiment: KINOMEscan competition binding; details: compound 10.0 µM
CSNK2A2 (human) = CSNK2A2 (human) (UniProt P19784); experiment: KINOMEscan competition binding; details: compound 10.0 µM
DAPK1 (human) = DAPK1 (human) (UniProt P53355); experiment: KINOMEscan competition binding; details: compound 10.0 µM
DAPK2 (human) = DAPK2 (human) (UniProt Q9UIK4); experiment: KINOMEscan competition binding; details: compound 10.0 µM
Chain of DAPK2 (human) (Q9UIK4 whole entry, looked up): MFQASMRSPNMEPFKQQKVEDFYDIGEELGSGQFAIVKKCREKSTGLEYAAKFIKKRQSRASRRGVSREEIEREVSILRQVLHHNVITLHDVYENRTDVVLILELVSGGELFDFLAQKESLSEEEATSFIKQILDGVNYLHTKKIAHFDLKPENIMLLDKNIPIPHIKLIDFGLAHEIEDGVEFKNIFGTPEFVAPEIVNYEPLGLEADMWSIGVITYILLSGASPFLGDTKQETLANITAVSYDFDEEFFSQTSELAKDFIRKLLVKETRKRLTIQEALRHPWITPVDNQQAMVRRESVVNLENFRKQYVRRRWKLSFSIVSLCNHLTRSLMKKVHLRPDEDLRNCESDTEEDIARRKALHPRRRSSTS

DYRK1B (human) = DYRK1B (human) (UniProt Q9Y463); experiment: KINOMEscan competition binding; details: compound 10.0 µM
GSK3A (human) = GSK3A (human) (UniProt P49840); experiment: KINOMEscan competition binding; details: compound 10.0 µM
GSK3B (human) = GSK3B (human) (UniProt P49841); experiment: KINOMEscan competition binding; details: compound 10.0 µM
HIPK1 (human) = HIPK1 (human) (UniProt Q86Z02); experiment: KINOMEscan competition binding; details: compound 10.0 µM
Chain of HIPK1 (human) (Q86Z02 whole entry, looked up): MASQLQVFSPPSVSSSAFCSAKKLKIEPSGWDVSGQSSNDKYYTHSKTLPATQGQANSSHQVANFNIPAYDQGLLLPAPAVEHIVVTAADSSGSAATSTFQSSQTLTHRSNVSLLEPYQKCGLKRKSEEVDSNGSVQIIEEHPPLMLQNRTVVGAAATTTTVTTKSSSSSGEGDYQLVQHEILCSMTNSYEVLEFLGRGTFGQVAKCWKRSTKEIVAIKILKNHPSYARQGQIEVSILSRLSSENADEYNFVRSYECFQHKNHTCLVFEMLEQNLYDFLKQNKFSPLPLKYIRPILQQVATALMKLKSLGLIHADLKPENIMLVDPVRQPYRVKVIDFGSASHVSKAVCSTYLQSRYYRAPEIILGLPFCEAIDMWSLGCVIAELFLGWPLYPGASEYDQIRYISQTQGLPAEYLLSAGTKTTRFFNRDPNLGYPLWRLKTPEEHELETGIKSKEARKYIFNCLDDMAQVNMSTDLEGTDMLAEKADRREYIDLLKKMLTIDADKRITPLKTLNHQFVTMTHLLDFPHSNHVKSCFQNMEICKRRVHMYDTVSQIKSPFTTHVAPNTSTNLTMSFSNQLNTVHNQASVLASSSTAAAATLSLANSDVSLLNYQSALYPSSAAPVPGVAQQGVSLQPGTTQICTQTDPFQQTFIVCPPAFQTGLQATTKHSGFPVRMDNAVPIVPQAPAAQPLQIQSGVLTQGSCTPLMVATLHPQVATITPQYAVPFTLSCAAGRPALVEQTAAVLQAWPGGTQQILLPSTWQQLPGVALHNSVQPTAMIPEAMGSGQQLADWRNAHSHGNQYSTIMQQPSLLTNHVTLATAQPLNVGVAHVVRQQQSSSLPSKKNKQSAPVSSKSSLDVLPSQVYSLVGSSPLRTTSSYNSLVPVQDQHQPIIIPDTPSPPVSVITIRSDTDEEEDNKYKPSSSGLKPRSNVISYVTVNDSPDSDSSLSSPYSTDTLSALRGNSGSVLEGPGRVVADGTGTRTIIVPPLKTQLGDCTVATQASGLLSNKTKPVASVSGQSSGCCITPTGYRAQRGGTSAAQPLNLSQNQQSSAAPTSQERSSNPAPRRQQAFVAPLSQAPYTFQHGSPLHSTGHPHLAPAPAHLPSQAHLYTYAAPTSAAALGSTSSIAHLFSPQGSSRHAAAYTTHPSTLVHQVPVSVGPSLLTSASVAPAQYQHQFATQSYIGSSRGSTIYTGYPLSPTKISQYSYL

[1] = biological target: JAK1 JH2 pseudokinase (human) (UniProt P23458); experiment: KINOMEscan competition binding; details: compound 10.0 µM
MAP2K3 (human) = MAP2K3 (human) (UniProt P46734); experiment: KINOMEscan competition binding; details: compound 10.0 µM
Chain of MAP2K3 (human) (P46734 whole entry, looked up): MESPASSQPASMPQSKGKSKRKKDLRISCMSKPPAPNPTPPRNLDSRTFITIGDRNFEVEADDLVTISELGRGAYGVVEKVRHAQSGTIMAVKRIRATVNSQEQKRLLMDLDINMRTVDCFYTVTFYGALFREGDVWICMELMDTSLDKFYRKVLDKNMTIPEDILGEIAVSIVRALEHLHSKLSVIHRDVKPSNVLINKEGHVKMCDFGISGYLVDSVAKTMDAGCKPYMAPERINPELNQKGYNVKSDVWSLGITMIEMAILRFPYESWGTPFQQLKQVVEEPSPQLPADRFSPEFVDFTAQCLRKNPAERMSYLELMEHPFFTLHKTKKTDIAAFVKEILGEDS

MAP3K7 (human) = MAP3K7 (human) (UniProt O43318); experiment: KINOMEscan competition binding; details: compound 10.0 µM
MAP4K2 (human) = MAP4K2 (human) (UniProt Q12851); experiment: KINOMEscan competition binding; details: compound 10.0 µM
MAPKAPK5 (human) = MAPKAPK5 (human) (UniProt Q8IW41); experiment: KINOMEscan competition binding; details: compound 10.0 µM
PIM1 (human) [2] = biological target: PIM1 (human) (UniProt P11309); experiment: KINOMEscan competition binding; details: compound 10.0 µM
Chain of PIM1 (human) (P11309 whole entry, looked up): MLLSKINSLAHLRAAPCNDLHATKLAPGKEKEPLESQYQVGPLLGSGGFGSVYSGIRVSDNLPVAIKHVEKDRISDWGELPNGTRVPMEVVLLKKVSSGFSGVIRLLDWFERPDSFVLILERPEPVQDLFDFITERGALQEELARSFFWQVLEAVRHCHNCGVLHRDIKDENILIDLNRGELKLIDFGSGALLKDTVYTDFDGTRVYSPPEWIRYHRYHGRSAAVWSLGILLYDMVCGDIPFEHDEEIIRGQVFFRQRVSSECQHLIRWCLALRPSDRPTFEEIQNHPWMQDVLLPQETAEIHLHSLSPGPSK

PIM2 (human) [3] = biological target: PIM2 (human) (UniProt Q9P1W9); experiment: KINOMEscan competition binding; details: compound 10.0 µM
Chain of PIM2 (human) (Q9P1W9 whole entry, looked up): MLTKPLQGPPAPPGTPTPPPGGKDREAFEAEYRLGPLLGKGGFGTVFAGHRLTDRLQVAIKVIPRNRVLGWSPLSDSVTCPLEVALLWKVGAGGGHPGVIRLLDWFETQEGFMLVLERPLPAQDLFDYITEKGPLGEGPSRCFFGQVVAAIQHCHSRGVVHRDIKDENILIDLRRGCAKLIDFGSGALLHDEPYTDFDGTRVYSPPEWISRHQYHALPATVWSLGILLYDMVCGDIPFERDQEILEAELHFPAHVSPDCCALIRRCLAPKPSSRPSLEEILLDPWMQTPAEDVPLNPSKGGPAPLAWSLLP

PIM3 (human) = PIM3 (human) (UniProt Q86V86); experiment: KINOMEscan competition binding; details: compound 10.0 µM
PLK4 (human) = PLK4 (human) (UniProt O00444); experiment: KINOMEscan competition binding; details: compound 10.0 µM
RIPK4 (human) = RIPK4 (human) (UniProt P57078); experiment: KINOMEscan competition binding; details: compound 10.0 µM
RPS6KA1 KD2 (human) = RPS6KA1 KD2 (human) (UniProt Q15418); experiment: KINOMEscan competition binding; details: compound 10.0 µM
RPS6KA2 KD2 (human) = RPS6KA2 KD2 (human) (UniProt Q15349); experiment: KINOMEscan competition binding; details: compound 10.0 µM
RPS6KA6 KD2 (human) = RPS6KA6 KD2 (human) (UniProt Q9UK32); experiment: KINOMEscan competition binding; details: compound 10.0 µM
Chain of RPS6KA6 KD2 (human) (Q9UK32 whole entry, looked up): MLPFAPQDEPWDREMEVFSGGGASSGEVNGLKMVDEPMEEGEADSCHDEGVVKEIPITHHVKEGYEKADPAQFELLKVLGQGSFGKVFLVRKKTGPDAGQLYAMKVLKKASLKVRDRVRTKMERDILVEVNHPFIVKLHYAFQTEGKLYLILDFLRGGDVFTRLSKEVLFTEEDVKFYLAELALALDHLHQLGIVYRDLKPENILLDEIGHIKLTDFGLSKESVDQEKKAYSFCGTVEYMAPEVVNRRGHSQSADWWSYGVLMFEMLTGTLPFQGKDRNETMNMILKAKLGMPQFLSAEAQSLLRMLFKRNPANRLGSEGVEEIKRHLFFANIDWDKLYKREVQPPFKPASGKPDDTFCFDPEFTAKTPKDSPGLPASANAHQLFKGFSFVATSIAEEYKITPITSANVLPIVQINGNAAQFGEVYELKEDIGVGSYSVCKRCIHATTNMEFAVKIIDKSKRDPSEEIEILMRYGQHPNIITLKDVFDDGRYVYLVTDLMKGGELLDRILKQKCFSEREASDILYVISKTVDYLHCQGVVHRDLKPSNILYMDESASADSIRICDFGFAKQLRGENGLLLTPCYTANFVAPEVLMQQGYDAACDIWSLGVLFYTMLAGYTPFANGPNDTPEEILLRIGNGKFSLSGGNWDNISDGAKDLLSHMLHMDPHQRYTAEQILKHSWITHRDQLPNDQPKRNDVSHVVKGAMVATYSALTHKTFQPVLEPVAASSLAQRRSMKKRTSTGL

STK17A (human) = STK17A (human) (UniProt Q9UEE5); experiment: KINOMEscan competition binding; details: compound 10.0 µM
STK17B (human) = STK17B (human) (UniProt O94768); experiment: KINOMEscan competition binding; details: compound 10.0 µM
STK24 (human) = STK24 (human) (UniProt Q9Y6E0); experiment: KINOMEscan competition binding; details: compound 10.0 µM
TGFBR2 (human) = TGFBR2 (human) (UniProt P37173); experiment: KINOMEscan competition binding; details: compound 10.0 µM
TLK1 (human) = TLK1 (human) (UniProt Q9UKI8); experiment: KINOMEscan competition binding; details: compound 10.0 µM
[4] = biological target: TYK2 JH2 pseudokinase (human) (UniProt P29597); experiment: KINOMEscan competition binding; details: compound 10.0 µM
PIM1 (human) [5] = biological target: PIM1 (human) (UniProt P11309); experiment: SelectScreen, TR FRET
PIM2 (human) [6] = biological target: PIM2 (human) (UniProt Q9P1W9); experiment: SelectScreen, TR FRET
ALK (human) = ALK (human) (UniProt Q9UM73); experiment: KINOMEscan competition binding; details: compound 10.0 µM
CAMK2A (human) = CAMK2A (human) (UniProt Q9UQM7); experiment: KINOMEscan competition binding; details: compound 10.0 µM
CAMKK1 (human) = CAMKK1 (human) (UniProt Q8N5S9); experiment: KINOMEscan competition binding; details: compound 10.0 µM
CAMKK2 (human) = CAMKK2 (human) (UniProt Q96RR4); experiment: KINOMEscan competition binding; details: compound 10.0 µM
CLK2 (human) = CLK2 (human) (UniProt P49760); experiment: KINOMEscan competition binding; details: compound 10.0 µM
DAPK3 (human) = DAPK3 (human) (UniProt O43293); experiment: KINOMEscan competition binding; details: compound 10.0 µM
DCLK1 (human) = DCLK1 (human) (UniProt O15075); experiment: KINOMEscan competition binding; details: compound 10.0 µM
DCLK2 (human) = DCLK2 (human) (UniProt Q8N568); experiment: KINOMEscan competition binding; details: compound 10.0 µM
GAK (human) = GAK (human) (UniProt O14976); experiment: KINOMEscan competition binding; details: compound 10.0 µM
MAPK7 (human) = MAPK7 (human) (UniProt Q13164); experiment: KINOMEscan competition binding; details: compound 10.0 µM
MET (human) = MET (human) (UniProt P08581); experiment: KINOMEscan competition binding; details: compound 10.0 µM
MINK1 (human) = MINK1 (human) (UniProt Q8N4C8); experiment: KINOMEscan competition binding; details: compound 10.0 µM
MYLK (human) = MYLK (human) (UniProt Q15746); experiment: KINOMEscan competition binding; details: compound 10.0 µM
PLK1 (human) = PLK1 (human) (UniProt P53350); experiment: KINOMEscan competition binding; details: compound 10.0 µM
PLK3 (human) = PLK3 (human) (UniProt Q9H4B4); experiment: KINOMEscan competition binding; details: compound 10.0 µM
PRKD1 (human) = PRKD1 (human) (UniProt Q15139); experiment: KINOMEscan competition binding; details: compound 10.0 µM
PTK2 (human) = PTK2 (human) (UniProt Q05397); experiment: KINOMEscan competition binding; details: compound 10.0 µM
SLK (human) = SLK (human) (UniProt Q9H2G2); experiment: KINOMEscan competition binding; details: compound 10.0 µM
STK33 (human) = STK33 (human) (UniProt Q9BYT3); experiment: KINOMEscan competition binding; details: compound 10.0 µM
TNK1 (human) = TNK1 (human) (UniProt Q13470); experiment: KINOMEscan competition binding; details: compound 10.0 µM
TTK (human) [7] = biological target: TTK (human) (UniProt P33981); experiment: KINOMEscan competition binding
Chain of TTK (human) (P33981 whole entry, looked up): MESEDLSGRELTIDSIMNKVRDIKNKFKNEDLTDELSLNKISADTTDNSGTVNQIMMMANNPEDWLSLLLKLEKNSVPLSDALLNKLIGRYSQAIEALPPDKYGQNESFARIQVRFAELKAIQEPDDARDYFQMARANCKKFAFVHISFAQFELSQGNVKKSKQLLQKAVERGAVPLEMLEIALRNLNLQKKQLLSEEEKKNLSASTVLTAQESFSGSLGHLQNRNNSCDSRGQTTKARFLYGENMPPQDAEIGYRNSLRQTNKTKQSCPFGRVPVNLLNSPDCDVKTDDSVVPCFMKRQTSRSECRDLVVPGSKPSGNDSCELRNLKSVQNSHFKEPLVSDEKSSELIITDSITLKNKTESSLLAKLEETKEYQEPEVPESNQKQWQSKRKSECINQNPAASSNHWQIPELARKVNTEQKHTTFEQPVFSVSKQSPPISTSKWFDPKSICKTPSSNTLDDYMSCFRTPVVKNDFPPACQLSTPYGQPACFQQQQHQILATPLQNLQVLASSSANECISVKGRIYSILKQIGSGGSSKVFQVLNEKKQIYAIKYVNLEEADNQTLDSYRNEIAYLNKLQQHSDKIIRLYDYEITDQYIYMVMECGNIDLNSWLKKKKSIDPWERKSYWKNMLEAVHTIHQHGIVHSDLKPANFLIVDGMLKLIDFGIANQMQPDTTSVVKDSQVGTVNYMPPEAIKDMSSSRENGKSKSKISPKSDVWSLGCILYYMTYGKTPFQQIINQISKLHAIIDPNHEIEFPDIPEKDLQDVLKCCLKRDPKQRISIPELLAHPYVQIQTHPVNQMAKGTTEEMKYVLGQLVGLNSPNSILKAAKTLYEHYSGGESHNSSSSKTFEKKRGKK

TTK (human) [8] = biological target: TTK (human) (UniProt P33981); experiment: SelectScreen, TR FRET
MYO3B (human) = MYO3B (human) (UniProt Q8WXR4); experiment: KINOMEscan competition binding; details: compound 10.0 µM

Chain of CDK16 (human) (Q00536 whole entry, looked up): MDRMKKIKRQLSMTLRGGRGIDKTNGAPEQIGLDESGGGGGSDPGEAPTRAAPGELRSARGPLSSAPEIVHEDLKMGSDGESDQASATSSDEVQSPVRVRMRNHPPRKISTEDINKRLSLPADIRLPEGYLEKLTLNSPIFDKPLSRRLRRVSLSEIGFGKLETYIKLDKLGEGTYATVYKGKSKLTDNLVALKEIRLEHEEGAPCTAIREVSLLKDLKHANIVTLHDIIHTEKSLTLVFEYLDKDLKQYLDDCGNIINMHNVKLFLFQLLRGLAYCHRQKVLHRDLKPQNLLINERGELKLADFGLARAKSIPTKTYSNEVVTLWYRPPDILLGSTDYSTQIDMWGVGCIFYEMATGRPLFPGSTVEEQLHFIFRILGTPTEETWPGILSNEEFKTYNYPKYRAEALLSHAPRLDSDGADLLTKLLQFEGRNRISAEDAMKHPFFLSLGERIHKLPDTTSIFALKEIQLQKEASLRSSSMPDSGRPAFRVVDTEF

N=C1NC(=O)/C(=C/c2ccc(-c3ccc4c(C(=O)Nc5ccc(N6CCNCC6)cc5)cccc4c3)o2)S1
kinase still bound, per cent of control (ACVR2B (human)): 33%
kinase still bound, per cent of control (ANKK1 (human)): 25%
kinase still bound, per cent of control (CDK16 (human)): 24%
kinase still bound, per cent of control (CSNK1E (human)): 15%
kinase still bound, per cent of control (CSNK2A2 (human)): 33%
kinase still bound, per cent of control (DAPK1 (human)): 12%
kinase still bound, per cent of control (DAPK2 (human)): 24%
kinase still bound, per cent of control (DYRK1B (human)): 10%
kinase still bound, per cent of control (GSK3A (human)): 18%
kinase still bound, per cent of control (GSK3B (human)): 34%
kinase still bound, per cent of control (HIPK1 (human)): 0.25%
kinase still bound, per cent of control [1]: 32%
kinase still bound, per cent of control (MAP2K3 (human)): 4.6%
kinase still bound, per cent of control (MAP3K7 (human)): 2.6%
kinase still bound, per cent of control (MAP4K2 (human)): 26%
kinase still bound, per cent of control (MAPKAPK5 (human)): 12%
kinase still bound, per cent of control (PIM1 (human) [2]): 6.4%
kinase still bound, per cent of control (PIM2 (human) [3]): 0.65%
kinase still bound, per cent of control (PIM3 (human)): 8.2%
kinase still bound, per cent of control (PLK4 (human)): 3.8%
kinase still bound, per cent of control (RIPK4 (human)): 1.3%
kinase still bound, per cent of control (RPS6KA1 KD2 (human)): 17%
kinase still bound, per cent of control (RPS6KA2 KD2 (human)): 26%
kinase still bound, per cent of control (RPS6KA6 KD2 (human)): 22%
kinase still bound, per cent of control (STK17A (human)): 0.1%
kinase still bound, per cent of control (STK17B (human)): 0.4%
kinase still bound, per cent of control (STK24 (human)): 23%
kinase still bound, per cent of control (TGFBR2 (human)): 5.7%
kinase still bound, per cent of control (TLK1 (human)): 12%
kinase still bound, per cent of control [4]: 8.8%
IC50 (PIM1 (human) [5]): 131 nM
IC50 (PIM2 (human) [6]): 115 nM

COc1cc(C(=O)NC2CCN(C)CC2)ccc1Nc1ncc2c(n1)N(C1CCCC1)CC(C)C(=O)N2C (configuration not stated)
kinase still bound, per cent of control (ALK (human)): 20%
kinase still bound, per cent of control (CAMK2A (human)): 20%
kinase still bound, per cent of control (CAMKK1 (human)): 33%
kinase still bound, per cent of control (CAMKK2 (human)): 7.6%
kinase still bound, per cent of control (CLK2 (human)): 15%
kinase still bound, per cent of control (DAPK1 (human)): 7.2%
kinase still bound, per cent of control (DAPK2 (human)): 21%
kinase still bound, per cent of control (DAPK3 (human)): 8.2%
kinase still bound, per cent of control (DCLK1 (human)): 3.4%
kinase still bound, per cent of control (DCLK2 (human)): 1.8%
kinase still bound, per cent of control (GAK (human)): 3.2%
kinase still bound, per cent of control (MAPK7 (human)): 9.6%
kinase still bound, per cent of control (MET (human)): 20%
kinase still bound, per cent of control (MINK1 (human)): 33%
kinase still bound, per cent of control (MYLK (human)): 0.45%
kinase still bound, per cent of control (PLK1 (human)): 22%
kinase still bound, per cent of control (PLK3 (human)): 2.8%
kinase still bound, per cent of control (PLK4 (human)): 16%
kinase still bound, per cent of control (PRKD1 (human)): 34%
kinase still bound, per cent of control (PTK2 (human)): 17%
kinase still bound, per cent of control (RPS6KA2 KD2 (human)): 34%
kinase still bound, per cent of control (RPS6KA6 KD2 (human)): 32%
kinase still bound, per cent of control (SLK (human)): 2%
kinase still bound, per cent of control (STK33 (human)): 7%
kinase still bound, per cent of control (TNK1 (human)): 24%
Kd (TTK (human) [7]): 3920 nM
kinase still bound, per cent of control (TTK (human) [7]; compound 10.0 µM): 9.4%
IC50 (TTK (human) [8]): > 10000 nM

N=C1NC(=O)/C(=C/c2cccc(-c3ccc(S(N)(=O)=O)cc3)c2)S1
kinase still bound, per cent of control (CDK16 (human)): 32%
kinase still bound, per cent of control (HIPK1 (human)): 25%
kinase still bound, per cent of control (MAP2K3 (human)): 24%
kinase still bound, per cent of control (MYO3B (human)): 2.9%
kinase still bound, per cent of control (PIM1 (human) [2]): 16%
kinase still bound, per cent of control (PIM2 (human) [3]): 6.2%
kinase still bound, per cent of control (PIM3 (human)): 13%
